These results are taken from paper PMC7188855, “Nucleic acid recognition and antiviral activity of 1,4-substituted terphenyl compounds mimicking all faces of the HIV-1 Rev protein positively-charged α-helix” (Scientific Reports, 2020).

Molecules are shown by their SMILES. Read-outs that look alike come from different tables or passages of the source.

Data set [1] concerns high-order RRE-Rev. Kind of data set: EMSA of full-length RRE-Rev ribonucleoprotein formation. Type of data set: binding, HIV-1. The conditions noted are these: 78 nM RRE, 1.32 μM Rev, 300 mM KCl, 1 mM MgCl2, band of high-order complexes. From the text:
After the high-affinity interaction between RRE subdomain IIB and the Rev34–50 helix of the first Rev monomer is established, the RRE-Rev ribonucleoprotein is formed by the incorporation of additional Rev units binding to further sites in the RRE (Fig. 3B, right)[9],[10],[13]. Using an electrophoretic mobility shift assay (EMSA) involving full-length RRE and Rev, we also evaluated whether 1,4-terphenyl compounds were capable of interfering with the formation of the ribonucleoprotein. […] The effect was particularly prominent for high-order complexes (containing a greater number of Rev monomers), but the inhibition of low-order complexes by 1d was also detected at concentrations consistent with the IC50 value measured in the IIB-Rev34–50 displacement experiment. Compounds 1b and 3c exerted a weaker effect on the RRE-Rev complex, in agreement with the results obtained in the displacement experiments monitored by fluorescence anisotropy (Fig. 3B and Table 1).
(§1) The experiments monitoring RRE-Rev inhibition utilized 78 nM full-length RRE and 1.32 μM full-length Rev dissolved in 10 mM HEPES pH 7.5, 300 mM KCl, 1 mM MgCl2 and 0.5 mM EDTA binding buffer, and increasing concentrations of each compound up to 50 μM[21],[39]. The reactions were incubated at room temperature for 20 minutes and loaded onto 8% polyacrylamide gels with TB running buffer. Gels were run at 4 °C for 1–4 hours at 150 V, and the bands were stained with SYBR gold and quantified with Quantity One 4.1 analysis software. Experiments monitoring binding to the 58-base pair HIV-1 LTRc core segment utilized 20 nM LTRc duplex dissolved in the same binding buffer, and increasing concentrations of each compound. The reactions were similarly incubated and loaded onto 20% polyacrylamide gels with TB running buffer. The gels were run at 4 °C for 3.5 hours at 150 V, and the bands were stained and quantified as described above. The specificity of LTRc association was evaluated by duplicating the experiments in the presence of a 100-fold molar excess of DNAd duplex (28-fold base-pair molar excess). In all cases, we monitored the disappearance of the band corresponding to high-order RRE-Rev complexes or free LTRc, and 50% response RC50 values were determined with Prism by fitting the data to a sigmoidal inhibitory model: I−Imin=ImaxC/1+C/RC50 where I is the intensity of the band corresponding to LTRc or high-order RRE-Rev species at compound concentration C, Imax the best-fit value for maximum intensity, and Imin the minimum intensity obtained at the highest concentration of inhibitor. All EMSA experiments were repeated three times for each compound.

The target in data set [2] is TARh hairpin containing the HIV-1 Tat-binding UCU bulge. Description: Fluorescence intensity binding to control TARh hairpin. To be noted: for Kd(TARh)/Kd(IIBh): low ionic strength, 10 mM sodium phosphate pH 6.6, uses Kd1. The source says:
To evaluate the specificity of subdomain IIB recognition, we measured binding to a control TARh hairpin containing the HIV-1 Tat-binding UCU bulge[23] (Fig. 1D). […] We further assessed specificity by duplicating the IIBh-23fl association experiments in the presence of a 10-fold molar excess of tRNA^Lys or a 26-base pair LTRd DNA duplex. The binding curves of the compounds were affected by the presence of competitive tRNA^Lys and to a lesser extent by LTRd (Figs. 4A, S4 and S5 and Tables 2 and S2).
These experiments measured association to IIBh-23fl or TARh-8fl RNA molecules labelled with fluorescein at extrahelical loop nucleotides U23 and U8, respectively (Fig. 1D), and were carried out under two different ionic conditions in a Victor X5 plate reader, using excitation and emission wavelengths of 485 and 520 nm, respectively. We also attempted to measure association to an alternative IIBh hairpin containing 2-aminopurine instead of adenine at unpaired loop IIB residue A19[21], but all terphenyls fluoresced at the excitation wavelength of this fluorophore. IIBh-23fl or TARh-8fl (at 100 nM concentration) was equilibrated for 5 minutes after each ligand addition in a buffer containing either 10 mM sodium phosphate pH 6.6 and 0.1 mM EDTA or 10 mM HEPES pH 7.5, 200 mM KCl and 2 mM MgCl2. In addition to the TARh specificity control, the RNA and DNA specificity of the IIBh interactions was assessed by duplicating the experiments in the presence of a 10-fold molar excess (1 μM) of either tRNA^Lys or DNA duplex LTRd. The equilibrium dissociation constants Kd were determined by fitting the fluorescence intensity curves with DYNAFIT[40]. We used one-site, two independent-sites and two interacting-sites binding models for all curves, and the best model was automatically selected by model discrimination analysis, except where indicated. The final graphs were plotted with Prism. All fluorescence intensity experiments were performed at least two times for each compound and condition.

The subject of data set [3] is HIV-1. Description: Cellular HIV-1 infection assay (NL4.3-Ren, MT-2 cells). Type of data set: cell-based. The conditions noted are these: Human immunodeficiency virus 1, MT2, 48 h post-infection. As for the experimental part:
(§2) The methodology used to perform and analyse these experiments has been reported elsewhere[7],[21],[22]. Briefly, infectious supernatants were obtained from transfection of plasmid pNL4.3-Ren on 293 T cells, MT-2 cells were infected with these supernatants in the presence of the compounds, and anti-HIV activity quantification was performed 48 h post-infection by determining luciferase activity in cell lysates compared to a non-treated control (100%). Cellular viability was evaluated in mock infected cells similarly treated with the same concentrations of compounds using the CellTiterGlo (Promega) assay.

Data set [4] concerns full length proviral HIV-1 (NL4.3-luc). Description: Transfection of full-length proviral HIV-1 (NL4.3-luc) in MT-2 cells. To be noted: Human immunodeficiency virus 1, MT2, 48 h, read-out: EC50 transfection HIV-1. The format is cell-based.
The nature of data set [5]: Cellular viability (CellTiterGlo) in mock infected cells. To be noted: human, mock infected MT-2 cells. Type of data set: cell-based. The procedure: as §2
A general note: In ATP-based viability assays light output follows the ATP content of the culture.

Data set [6] relates to LTRc, core region of the HIV-1 LTR promoter. Description: EMSA of association to LTRc DNA. The format is binding. To be noted: 20 nM LTRc duplex; 10 mM HEPES pH 7.5, 300 mM KCl, 1 mM MgCl2, 0.5 mM EDTA. As for the experimental part:
as §1
(A gel shift assay detects complexes by their altered migration in electrophoresis.)

The subject of data set [7] is HIV-1 LTR promoter. Description: Transfection of pLTR-luc in MT-2 cells. The conditions noted are these: Human immunodeficiency virus 1, MT2, 48 h, read-out: EC50 transfection HIV-1 LTR.
Description: (§3) To further assess the mechanism of antiviral action of the compounds, we checked whether they also interfered with the regulatory sequences of HTLV-1, a closely related retrovirus.
(§4) MT-2 cells were transfected with plasmids containing a luciferase reporter gene whose expression was under the control of the full length proviral HIV-1 (NL4.3-luc), the HIV-1 LTR promoter (pLTR-luc), or the HTLV-1 LTR promoter (pLTR(HTLV)-luc). After transfection, cells were treated with different compound concentrations, and activity quantification was performed 48 h later by determining luciferase activity in cell lysates as described[7],[21],[22].
For data set [8], the system named is HTLV-1 LTR promoter. Description: Transfection of pLTR(HTLV)-luc in MT-2 cells. The conditions noted are these: Primate T-lymphotropic virus 1, MT2, 48 h, read-out: EC50 transfection HTLV LTR.
Description: as §3, §4
The target in data set [9] is RRE subdomain IIB-Rev34–50. Kind of data set: Fluorescence anisotropy displacement of the IIBh-Rev34–50 interaction. To be noted: read-out: IC50, RRE subdomain IIB-Rev34–50, 60 nM IIBh, 10 nM frevp, 100 mM KCl, 20 mM NaCl, 2 mM MgCl2. (In general: Polarisation of emitted light reports the rotation of a fluorescent probe.)
Description: These experiments were conducted in a Victor X5 (PerkinElmer) plate reader as described before[7],[21], using 10 nM frevp and 60 nM IIBh. […] Each fluorescence anisotropy experiment was repeated at least two times.
The mark [10] stands for this setting: 10 mM sodium phosphate pH 6.6, 0.1 mM EDTA, read-out: Kd (TARh), one-site or first-site Kd1.
The mark [11] stands for this setting: higher ionic strength, 10 mM HEPES pH 7.5, 200 mM KCl, 2 mM MgCl2.
[12] abbreviates: higher ionic strength, 10 mM HEPES pH 7.5, 200 mM KCl, 2 mM MgCl2, read-out: Kd (TARh), Table S2.

In general, IC50 refers to the concentration that gives 50% inhibition. For orientation: Kd means the constant that tells how readily two partners part at equilibrium. As usually defined, the EC50 is the concentration that produces a half-maximal response. A word on the CC50: it is the concentration at which the toxic effect on the cells reaches its halfway point. Low readings indicate greater toxicity to the cells, high ones lower toxicity to the cells. In the case of `Cc1cc(-c2cc(CCN)ccc2CCN)c(C)cc1-c1cc(CCN)ccc1CCN` [Compound 1d], the figures for the IC50 in data set [1] and in data set [9] were 3 µM and 47 µM, respectively. The Kd in data set [2] (setting [10]) amounted to 22 µM; in data set [2] (10 mM sodium phosphate pH 6.6, 0.1 mM EDTA, two-site model, read-out: Kd (TARh), second-site Kd2 (in brackets)) it was 22 µM; in [2] (setting [12]), 32 µM. In addition, the “Kd(TARh)/Kd(IIBh), Table S2” value in [2] (setting [11]) came to 4.3. Also, in data set [2], the “Kd(TARh)/Kd(IIBh)” value came out at 25. The EC50 was 57.9 µM in data set [3], 6 µM in data set [4], 3.2 µM in data set [7] and 24.9 µM in data set [8]. In addition, the CC50 at 48 h in data set [5] is more than 100 µM. The “association to LTRc (EMSA)” value in data set [6] is reported as “associated to LTRc at low μM concentrations”.
For the compound `COc1cc(CCN)c(-c2cc(C)c(-c3cc(CCN)c(OC)cc3CCN)cc2C)cc1CCN` [Compound 1a], the results for the IC50 in data set [1] and in data set [9] were 6.8 µM and 14 µM, respectively. Further, the Kd in [2] (setting [10]) came to 12 µM; in data set [2] (setting [12]), 13 µM. Further, in data set [2] (setting [11]), the “Kd(TARh)/Kd(IIBh), Table S2” value amounted to 3.0. Besides, in data set [2], the “Kd(TARh)/Kd(IIBh)” value was determined as 12. Further, the EC50 in data set [3] is 10.6 µM; in data set [4], 12.2 µM; in data set [7], 7.2 µM; in [8] it was 16.7 µM. The CC50 at 48 h in data set [5] is more than 100 µM. Further, in [6], the “association to LTRc (EMSA)” value is given as “associated to LTRc at low μM concentrations”.
Turning to `Cc1cc(-c2cc(CCN)ccc2CCN)c(C)cc1-c1cccc(CCN)c1` [Compound 3c], the values for the IC50 in data set [1] and in data set [9] were more than 50 µM and more than 100 µM, respectively. Besides, the Kd in data set [2] (setting [10]) was 78 µM; in data set [2] (setting [12]), more than 50 µM. In data set [2], the “Kd(TARh)/Kd(IIBh)” value is on record as 12. Also, the EC50 in data set [3] turned out to be 14.1 µM; in [4] it was 15.4 µM; in [7] it was 3.32 µM; in data set [8], 16.4 µM. Further, the CC50 at 48 h in data set [5] was more than 100 µM. Moreover, the “association to LTRc (EMSA)” value in data set [6] was “associated only very weakly”.
